Data: patent US20100016275A1, “NOVEL COMPOUND 395” (priority 2008, published 2010)
In brackets after ≈: the same amount, converted by molar mass. Several values for one entry are separate records, joined by “and”; a condition that tells them apart may be missing. Equal values may be shown once.

Experiments:
human CXCR2 receptor = target: T1, human CXCR2 receptor (Homo sapiens, UniProt P25025); test: Potency (pIC50) ligand binding assay, inhibition of [125I]IL-8 binding; details: for IC50: inhibition of specific [125I]IL-8 (0.06 nM) binding, membranes of HEK293 cells transfected with human recombinant CXCR2
T1 construct: expressed in transfected cells; host or cells: HEK293, stably transfected geneticin-resistant clones, vector RcCMV; membranes purified by sucrose gradient
T1 sequence (P25025 1-360): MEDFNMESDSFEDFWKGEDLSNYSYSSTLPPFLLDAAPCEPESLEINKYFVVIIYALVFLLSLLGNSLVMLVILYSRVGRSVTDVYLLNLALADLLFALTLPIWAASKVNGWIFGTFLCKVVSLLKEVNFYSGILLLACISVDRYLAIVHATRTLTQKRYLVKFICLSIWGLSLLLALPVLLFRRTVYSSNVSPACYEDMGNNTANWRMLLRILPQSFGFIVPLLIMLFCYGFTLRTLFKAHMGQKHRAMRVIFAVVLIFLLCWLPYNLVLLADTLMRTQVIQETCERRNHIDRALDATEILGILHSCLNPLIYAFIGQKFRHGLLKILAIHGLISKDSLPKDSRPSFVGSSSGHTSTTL
Method: Potency (pIC50)—Ligand Binding Assay
The potency of antagonists at the human CXCR2 receptor was determined in vitro by quantifying their ability to inhibit specific binding of the CXCR2 radioligand, [^125I]interleukin-8 (IL-8), from membranes of HEK293 cells transfected with the human recombinant CXCR2 receptor.
Commercially sourced materials were obtained as follows: U-bottomed 96-well plates (3799) and 225 cm^2 vented cap culture flasks (3001) from Costar, Corning, Kent, UK. Multiscreen filter plates (0.45 μm; MAHV N45 50), vacuum manifold and pump (XF54 230 50) from Millipore, Watford, UK. N-[2-hydroxyethyl]piperazine-N′-[2ethanesulphonic acid] (HEPES; H-3375), ethylene diamine-tetraacetic acid (EDTA; E1644), magnesium chloride (M-9272), gelatin (G9382), dithiothreitol (DTT; D06052), sodium chloride (S3160/63), sodium hydroxide (B6506), bacitracin (B0125), inactivated foetal calf serum (FCS; CR0848) and DMSO Fluka Chemika (41648) from Sigma, Poole, UK. MicroScint-O (6013611) Packard BioScience, Pangboume, UK. Complete protease inhibitor cocktail tablets (1836145) from Boehringer s Mannheim, GmbH, Germany. Human recombinant [^125I]IL-8 74 TBq/mmol, 0.712 MBq/ml (IM249) from Amersham, Horsham UK. All other tissue culture reagents were purchased from Invitrogen, Paisley, Scotland, UK. All other chemical reagents were analytical grade from Fisher Scientific, Loughborough, UK
HEPES-buffered salt solution pH 7.4 containing HEPES (10 mM), potassium chloride (2.7 mM), sodium chloride (137 mM), potassium hydrogen phosphate (0.4 mM), calcium chloride (1.8 mM), magnesium chloride (1 mM), gelatin (0.1% (w/v)) and bacitracin (100 μg/ml).
HEPES-buffered Tyrode's solution pH 7.4 containing HEPES (10 mM), potassium chloride (2.7 mM), sodium chloride (137 mM), potassium hydrogen phosphate (0.4 mM), glucose (11 mM).
Hypotonic buffer: 3:1 mix of water: HEPES-buffered Tyrode's solution.
HEK293 cells were transfected with human CXCR2 (EMBL L19593) cDNA, previously cloned into the eukaryotic expression vector RcCMV. Cloned cell-lines were generated from stably-transfected geneticin-resistant populations. Cells were routinely grown to approximately 80% confluence in DMEM medium containing 10% (v/v) foetal calf serum and glutamine (2 mM) in a humidified incubator at 37° C., 5% CO2. Cells were harvested from flasks using Accutase™ at 37° C. for 3 to 5 minutes and resuspended on ice in hypotonic buffer at a density of 2×10^7 cells/mL. Membranes were prepared on ice by homogenisaton using a polytron tissue homogenizer set at 22000 rpm. The membrane fraction was purified by sucrose gradient centrifugation where homogenised cells were layered onto 41% (w/v) sucrose solution then centrifuged at 140000 g for 1 hour at 4° C. The membrane fraction was harvested at the interface, diluted 4-fold with HEPES-buffered Tyrode's solution and centrifuged at 100000 g for 20 minutes at 4° C. The membrane pellet was re-suspended at 1×10^8 cell equivalents/mL in HEPES-buffered Tyrode's solution and subsequently stored in aliquots at −80° C. All buffers used for membrane preparation and storage were made in the presence of 1 mM DTT and Complete Protease Inhibitor™ cocktail tablets, made up to manufacturers instructions.
Assays were performed in HEPES-buffered salt solution in 96-well plates. [^125I]IL-8 was used at a final concentration of 0.06 nM, pre-diluted from a 9.6 nM stock. The final DMSO concentration in the assay was 1% (v/v). Test compounds were prepared by serial dilution in DMSO followed by a ten-fold dilution into HEPES-buffered salt solution to give a working solution containing compound and 10% DMSO. The control for total binding (B0) of [^125I]IL-8 was determined in the absence of compound. The control for non-specific binding (NSB) was determined by measuring [^125I]IL-8 binding in the presence of (1R)-5-[[(3 -chloro-2-fluorophenyl)methyl]thio]-7-[[2-hydroxy-1-methylethyl]amino]thiazolo[4,5-d]pyrimidin-2(3H)-one dihydrate, sodium salt at 1 μM final concentration. […]

[1] = Measurement of solubility (S); format: physicochemical; details: thermodynamic from solid; saturated solution, shaken overnight at 20° C.
Description: Measurement of Solubility (S)
The solubility of a compound is an important property affecting the preparation of solutions of the compound for screening, as well as influencing absorption of solid doses of the compound in animal and human studies. The method described below for measuring the solubility involves the generation of a saturated solution of the compound, followed by assaying the solution using HPLC with UV quantification and MS identification.
Saturated solutions for determining the solubility were prepared by placing about 0.3-3.0 ml of solvent in glass screw-top sample tubes along with some of the compound. The tubes are then shaken overnight in the constant temperature room (20° C.). After shaking, undissolved material should be present in the solution, and more was added and shaking continued if this was not the case. The samples were then transferred to a centrifuge tube and centrifuged using a Heraeus Biofuge Fresco centrifuge at 13000 rpm for about 30 minutes. The supernatant was then removed, placed in a new centrifuge tube and centrifuged again for about 30 minutes at 13000 rpm. The undissolved material formed a pellet at the bottom of the tube and the liquid above the pellet was removed for assaying. The solution was then analysed using HPLC with UV quantification. If the response for the compound is very strong then the solution should be accurately diluted such that the response lies within a more suitable range of UV response. A standard was also prepared by accurately weighing a sample of the compound and dissolving it in a suitable volume of a solvent that dissolves it completely (typically, DMSO, ethanol or methanol). This sample was then analysed by HPLC/UV. Again the response of this standard should lie within a suitable range of UV response otherwise a more appropriate concentration should be prepared and analysed by HPLC/UV.
The solubility (S) was calculated from the observed peak areas in the HPLC/UV chromatograms along with corrections for any dilutions of the sample and differences in injection volumes. The following equation was used: […]

Row | IC50 (human CXCR2 receptor) | solubility [1] | fold less potent than the compound of Formula (1) (human CXCR2 receptor; potency ratio from pIC50) | fold less potent than the compounds of Examples 39-42 (human CXCR2 receptor; potency ratio from pIC50) | Compound
1 | 6.31 nM and < 10 nM | 317 µg/mL (≈ 667 µM) |  |  | C[C@@H](Nc1cc(NS(=O)(=O)N2CCC2)nc(SCc2cccc(F)c2F)n1)[C@@H](O)CO [Example 1, N-(2-[(2,3-difluorobenzyl)thio]-6-{[(1R,2R)-2,3-dihydroxy-1-methylpropyl]amino}pyrimidin-4-yl)azetidine-1-sulfonamide]
2 | 2.51 nM |  |  |  | Cc1cccc(CSc2nc(N[C@H](C)CO)cc(NS(=O)(=O)N3CCC3)n2)c1F [Example 40]

Further lines, the compound ahead of its results:

Row | Compound | IC50 (human CXCR2 receptor) | solubility [1] | fold less potent than the compound of Formula (1) (human CXCR2 receptor; potency ratio from pIC50) | fold less potent than the compounds of Examples 39-42 (human CXCR2 receptor; potency ratio from pIC50)
3 | CS(=O)(=O)Nc1cc(NC(CO)CO)nc(SCc2ccccc2)n1 [Example 21] | 2510 nM |  | 398 fold | 316-1000 fold
4 | Cc1cccc(CSc2nc(N[C@H](C)CO)cc(NS(C)(=O)=O)n2)c1F [Example 39] | 3.98 nM | 342 µg/mL (≈ 854 µM) |  | 
5 | Cc1ccc(CSc2nc(N[C@H](C)CO)cc(NS(=O)(=O)N3CCC3)n2)c(F)c1C [Example 41] | 3.16 nM | 372 µg/mL (≈ 817 µM) |  | 
6 | Cc1ccc(CSc2nc(N[C@H](C)CO)cc(NS(=O)(=O)N3CCC3)n2)c(F)c1C [Example 42] | 7.94 nM |  |  | 
